Test results as given in PubChem BioAssay AID1963979 (Molecular Pharmacology Branch, DTP, NCI, 2024).

Test system: 361931-004-R-J1-PDC multicell spheroid viability
Test: Anticancer human tumor 361931-004-R-J1-PDC patient-derived colon adenocarcinoma cell line growth inhibition [PI3K]
Details: for viability, T/C: stronger effect = lower value
How it was run: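 Targeted small molecules plus PI3K inhibitors, half-log dose series from Cmax (default top 10 microM), were applied to heterotypic spheroids of cancer cells with HUVEC and MSCs. Viability indicated growth inhibition.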

[1] = curve of first compound, second compound 0.0316 µM
[2] = curve of first compound, second compound 0.1 µM
[3] = curve of first compound, second compound 0.316 µM
[4] = curve of first compound, second compound 1 µM
[5] = second compound 0.0316 µM, first compound 0.0316 µM
[6] = second compound 0.0316 µM, first compound 0.1 µM
[7] = second compound 0.0316 µM, first compound 0.316 µM
[8] = second compound 0.0316 µM, first compound 1 µM
[9] = second compound 0.0316 µM, first compound 3.16 µM
[10] = second compound 0.0316 µM, first compound 10 µM
[11] = second compound 0.1 µM, first compound 0.0316 µM
[12] = second compound 0.1 µM, first compound 0.1 µM
[13] = second compound 0.1 µM, first compound 0.316 µM
[14] = second compound 0.1 µM, first compound 1 µM
[15] = second compound 0.1 µM, first compound 3.16 µM
[16] = second compound 0.1 µM, first compound 10 µM
[17] = second compound 0.316 µM, first compound 0.0316 µM
[18] = second compound 0.316 µM, first compound 0.1 µM
[19] = second compound 0.316 µM, first compound 0.316 µM
[20] = second compound 0.316 µM, first compound 1 µM
[21] = second compound 0.316 µM, first compound 3.16 µM
[22] = second compound 0.316 µM, first compound 10 µM
[23] = second compound 1 µM, first compound 0.0316 µM
[24] = second compound 1 µM, first compound 0.1 µM
[25] = second compound 1 µM, first compound 0.316 µM
[26] = second compound 1 µM, first compound 1 µM
[27] = second compound 1 µM, first compound 3.16 µM
[28] = second compound 1 µM, first compound 10 µM
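Further: spheroids exposed to agents for seven days before readout.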

CC(Nc1ncnc2nc[nH]c12)c1cc2cccc(Cl)c2c(=O)n1-c1ccccc1 (stereo unspecified)
viability, T/C (compound 0.0316 µM): 106% [middle of 8 runs]
viability, T/C (compound 0.1 µM): 102% [middle of 8 runs]
viability, T/C (compound 0.316 µM): 105% [middle of 8 runs]
viability, T/C (compound 1 µM): 104% [middle of 8 runs]
viability, T/C (compound 3.16 µM): 103% [middle of 8 runs]
viability, T/C (compound 10 µM): 102% [middle of 8 runs]
IC50 (compound alone, run of 05/09/2023): > 10 µM

CNC(=O)c1ccc(N2C(=S)N(c3ccc(C#N)c(C(F)(F)F)c3)C(=O)C2(C)C)cc1F + COc1c(OCCCN2CCOCC2)ccc2c3n(c(=NC(=O)c4cnc(N)nc4)nc12)CCN3
IC50 (curve of first compound, second compound 0.00316 µM): > 10 µM
IC50 (curve of first compound, second compound 0.01 µM): > 10 µM
IC50 [1]: > 10 µM
IC50 [2]: > 10 µM
IC50 [3]: 3.98 µM
IC50 [4]: < 0.0316 µM
viability, T/C (second compound 0.00316 µM, first compound 0.0316 µM): 103%
viability, T/C (second compound 0.00316 µM, first compound 0.1 µM): 102%
viability, T/C (second compound 0.00316 µM, first compound 0.316 µM): 97.6%
viability, T/C (second compound 0.00316 µM, first compound 1 µM): 103%
viability, T/C (second compound 0.00316 µM, first compound 3.16 µM): 105%
viability, T/C (second compound 0.00316 µM, first compound 10 µM): 88.5%
viability, T/C (second compound 0.01 µM, first compound 0.0316 µM): 95.5%
viability, T/C (second compound 0.01 µM, first compound 0.1 µM): 101%
viability, T/C (second compound 0.01 µM, first compound 0.316 µM): 98.8%
viability, T/C (second compound 0.01 µM, first compound 1 µM): 98.2%
viability, T/C (second compound 0.01 µM, first compound 3.16 µM): 98.7%
viability, T/C (second compound 0.01 µM, first compound 10 µM): 86.2%
viability, T/C [5]: 83.6%
viability, T/C [6]: 92.3%
viability, T/C [7]: 91.7%
viability, T/C [8]: 90%
viability, T/C [9]: 95.7%
viability, T/C [10]: 88.4%
viability, T/C [11]: 81.1%
viability, T/C [12]: 82.5%
viability, T/C [13]: 76.1%
viability, T/C [14]: 81.5%
viability, T/C [15]: 86.1%
viability, T/C [16]: 65.8%
viability, T/C [17]: 56.2%
viability, T/C [18]: 53%
viability, T/C [19]: 54.1%
viability, T/C [20]: 57.5%
viability, T/C [21]: 52.8%
viability, T/C [22]: 36.7%
viability, T/C [23]: 28.7%
viability, T/C [24]: 22.2%
viability, T/C [25]: 22.7%
viability, T/C [26]: 26.8%
viability, T/C [27]: 26.5%
viability, T/C [28]: 17.1%

CNC(=O)c1ccc(N2C(=S)N(c3ccc(C#N)c(C(F)(F)F)c3)C(=O)C2(C)C)cc1F + Cc1nc(NC(=O)N2CCCC2C(N)=O)sc1-c1ccnc(C(C)(C)C(F)(F)F)c1
IC50 [1]: > 10 µM
IC50 [2]: > 10 µM
IC50 [3]: > 10 µM
IC50 [4]: > 10 µM
IC50 (curve of first compound, second compound 3.16 µM): > 10 µM
IC50 (curve of first compound, second compound 10 µM): > 10 µM
viability, T/C [5]: 113%
viability, T/C [6]: 101%
viability, T/C [7]: 91%
viability, T/C [8]: 90.8%
viability, T/C [9]: 98%
viability, T/C [10]: 99.6%
viability, T/C [11]: 106%
viability, T/C [12]: 101%
viability, T/C [13]: 87.4%
viability, T/C [14]: 94.4%
viability, T/C [15]: 93.3%
viability, T/C [16]: 86.6%
viability, T/C [17]: 99.2%
viability, T/C [18]: 90.8%
viability, T/C [19]: 100%
viability, T/C [20]: 104%
viability, T/C [21]: 104%
viability, T/C [22]: 95.8%
viability, T/C [23]: 94.1%
viability, T/C [24]: 93.5%
viability, T/C [25]: 80%
viability, T/C [26]: 94.5%
viability, T/C [27]: 94.1%
viability, T/C [28]: 85.6%
viability, T/C (second compound 3.16 µM, first compound 0.0316 µM): 83.2%
viability, T/C (second compound 3.16 µM, first compound 0.1 µM): 82.9%
viability, T/C (second compound 3.16 µM, first compound 0.316 µM): 91.3%
viability, T/C (second compound 3.16 µM, first compound 1 µM): 84.2%
viability, T/C (second compound 3.16 µM, first compound 3.16 µM): 98%
viability, T/C (second compound 3.16 µM, first compound 10 µM): 70.3%
viability, T/C (second compound 10 µM, first compound 0.0316 µM): 70.2%
viability, T/C (second compound 10 µM, first compound 0.1 µM): 67.1%
viability, T/C (second compound 10 µM, first compound 0.316 µM): 59.3%
viability, T/C (second compound 10 µM, first compound 1 µM): 69.1%
viability, T/C (second compound 10 µM, first compound 3.16 µM): 76.1%
viability, T/C (second compound 10 µM, first compound 10 µM): 45.2%
